Reference: PMC10184130
pIC50: −log10 of the molar value. Counter-ions that a name gives are not always drawn.

Key:
[1] = molecular target: T1, human C1s (Homo sapiens, UniProt P09871); experiment: Human C1s enzyme assay; type: biochemical
T1 construct: Recombinant human C1s (358–688 aa) fused with both the N-terminal IgG signal peptide; IgG signal peptide (N); His tag (C); made in house; host or cells: HEK293 cells
T1 sequence (P09871 358-688): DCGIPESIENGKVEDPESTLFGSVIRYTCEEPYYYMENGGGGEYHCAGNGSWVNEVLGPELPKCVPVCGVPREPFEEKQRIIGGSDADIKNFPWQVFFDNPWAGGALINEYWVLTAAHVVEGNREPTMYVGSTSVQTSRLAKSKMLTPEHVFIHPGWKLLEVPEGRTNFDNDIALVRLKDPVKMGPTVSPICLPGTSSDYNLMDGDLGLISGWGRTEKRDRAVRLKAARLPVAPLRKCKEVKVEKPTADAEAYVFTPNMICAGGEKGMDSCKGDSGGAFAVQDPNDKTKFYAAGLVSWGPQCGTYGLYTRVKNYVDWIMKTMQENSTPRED
Protocol: Recombinant human C1s (358–688 aa) fused with both the N-terminal IgG signal peptide and the C-terminal His tag was expressed in HEK293 cells and purified. The assay was performed in a 384-well clear plate in a total volume of 20 μL of an assay buffer 1 [50 mmol/L Tris–HCl (pH 7.5), 150 mmol/L NaCl, 0.01% (w/v) Tween 20, and 0.01% (w/v) BSA]. Compounds were dissolved in DMSO and diluted to various concentrations. After 20 nL of compound solution was added to the plate, 10 μL of substrate solution containing a 250 μmol/L Z-Lys-SBzl peptide (Watanabe Chemical, Hiroshima, Japan) and 250 μmol/L DTNB (5,5′-dithiobis(2-nitrobenzoic acid)) (Sigma, MO, USA) was added to the plate. Then, 8 nmol/L human C1s was added to the plate and incubated at room temperature for 60 min. The absorbance at 405 nm was detected using an EnVision multilabel plate reader. […] The IC50 values were calculated using IDBS XLfit software.

[2] = likely due to the basic amidine moiety; cited from earlier work
[3] = molecular target: T2, human C1r (Homo sapiens, UniProt P00736); experiment: Human C1r enzyme assay; type: biochemical
T2 construct: Recombinant human C1r (375–705 aa) fused with both the N-terminal IgG signal peptide; IgG signal peptide (N); His tag (C); made in house; host or cells: HEK293 cells
T2 sequence (P00736 375-705): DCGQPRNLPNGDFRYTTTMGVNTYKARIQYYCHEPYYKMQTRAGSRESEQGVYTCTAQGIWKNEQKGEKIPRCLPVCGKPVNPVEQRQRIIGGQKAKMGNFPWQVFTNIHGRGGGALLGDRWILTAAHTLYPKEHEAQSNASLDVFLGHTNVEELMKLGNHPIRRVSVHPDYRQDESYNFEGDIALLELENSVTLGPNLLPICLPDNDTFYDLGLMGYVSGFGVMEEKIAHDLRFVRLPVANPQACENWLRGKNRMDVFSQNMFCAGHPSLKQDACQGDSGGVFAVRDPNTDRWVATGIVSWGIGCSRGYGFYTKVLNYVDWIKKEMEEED
Text: Recombinant human C1r (375–705 aa) fused with both the N-terminal IgG signal peptide and the C-terminal His tag was expressed in HEK293 cells and purified. Human C1r assay conditions were the same as for human C1s, except that the enzyme solution concentration was 3 nmol/L and the substrate peptide was 250 μmol/L Z-Gly-Arg-SBzl (custom synthesis from Peptide Institute, Osaka, Japan) instead of Z-Lys-SBzl.

[4] = molecular target: T3, human MASP2 (Homo sapiens, UniProt O00187); experiment: Human MASP2 enzyme assay; type: biochemical
T3 construct: Recombinant human MASP2 (298–686 aa) fused with both the N-terminal IgG signal peptide; IgG signal peptide (N); His tag (C); made in house; host or cells: Expi293 cells
Protocol: Recombinant human MASP2 (298–686 aa) fused with both the N-terminal IgG signal peptide and the C-terminal His tag was expressed in Expi293 cells and purified. The assay was performed in a 384-well black plate in a total volume of 6 μL of the assay buffer 1. After 20 nL of compound solution was added to the plate, 3 μL of substrate solution containing a 20 μmol/L Z-Gly-Arg-SBzl peptide and 20 μmol/L BES-Thio (FUJIFILM Wako, Osaka, Japan) was added to the plate. Then, 0.6 nmol/L human MASP2 was added to the plate and incubated at room temperature for 60 min. The fluorescence at an excitation wavelength of 485 nm and an emission wavelength of 535 nm was detected using an EnVision multilabel plate reader.

[5] = molecular target: T4, human factor D (Homo sapiens, UniProt P00746); experiment: Human factor D enzyme assay; type: biochemical
T4 construct: Recombinant human factor D (26–253 aa) fused with both the N-terminal IgG signal peptide; IgG signal peptide (N); His tag (C); made in house; host or cells: Expi293 cells
Text: Recombinant human factor D (26–253 aa) fused with both the N-terminal IgG signal peptide and the C-terminal His tag was expressed in Expi293 cells and purified. The human factor D assay condition was the same as for human MASP2, except that the enzyme solution concentration was 20 nmol/L and the substrate solution contained a 400 μmol/L Z-Lys-SBzl peptide and 50 μmol/L BES-Thio.

[6] = molecular target: T5, human thrombin (Homo sapiens, UniProt P00734); experiment: Human thrombin enzyme assay; type: biochemical
T5 construct: purchased AnaSpec
Protocol: The human thrombin enzyme activity was determined by a SensoLyte 520 thrombin activity assay kit (AnaSpec, CA, USA). Purified human thrombin and the substrate were diluted in the assay buffer 1. After 20 nL of compound solution was added to a 384-well black plate, 3 μL of the 2 μmol/L 5-FAM/QXLTM 520 thrombin substrate was added to the plate. Then, 8 nmol/L human thrombin was added to the plate and incubated at room temperature for 60 min. The fluorescence at an excitation wavelength of 485 nm and an emission wavelength of 535 nm was detected using an EnVision multilabel plate reader.

[7] = molecular target: human trypsin; experiment: Human trypsin enzyme assay; type: biochemical
Protocol: Recombinant human trypsin (FUJIFILM Wako, Osaka, Japan) and the substrate were diluted in an assay buffer [50 mmol/L Tris–HCl (pH 7.5), 145 mmol/L NaCl, 2 mmol/L CaCl2, and 0.01% (w/v) Tween 20]. After 20 nL of compound solution was added to a 384-well black plate, 3 μL of substrate solution containing 25 μmol/L Boc-Phe-Ser-Arg-MCA (Peptide Institute, Osaka, Japan) was added to the plate. Then, 6 mU/mL human trypsin was added to the plate and incubated at room temperature for 60 min. The fluorescence at an excitation wavelength of 360 nm and an emission wavelength of 460 nm was detected using an EnVision multilabel plate reader.

[8] = PAMPA; type: in vitro ADME
Protocol: A PAMPA Evolution system (pION) was applied for the assay. After incubating the test compound (10 μmol/L) for 3 h at 25 °C, the permeation coefficient value was calculated with determining the test compound by LC/MS/MS.

[9] = molecular target: T6, Human Multidrug Resistance 1 (MDR-1) Expressing Cells (Homo sapiens, UniProt P08183); experiment: Membrane permeability with human MDR-1 expressing cells; type: in vitro ADME; conditions: supplementary csv
T6 construct: expressed in transfected cells
Protocol: (§1) The transcellular transport study was performed as reported previously.[31] In brief, the cells were grown in an HTS Transwell 96-well permeable support (pore size of 0.4 μm, 0.143 cm^2 surface area) with a polyethylene terephthalate membrane (Corning Life Sciences, Lowell, MA, USA) at a density of 1.125 × 10^5 cells/well. The cells were preincubated with M199 at 37 °C for 30 min. Subsequently, transcellular transport was initiated by the addition of M199 to apical compartments containing 1 μmol/L test compounds and terminated by the removal of each assay plate after 2 h. The aliquots in the opposite compartments were subjected to measurement for compound concentration by LC–MS/MS. Permeability was calculated using the permeated compound concentration.

[10] = molecular target: T7, MDR1 (P-gp) (Homo sapiens, UniProt P08183); experiment: as above; type: in vitro ADME; conditions: human; MDR1-expressing cells, 1 μmol/L, 2 h
T7 construct: expressed in transfected cells
Protocol: as §1

[11] = 95% confidence intervals in parentheses

T3 sequence (O00187 298-686): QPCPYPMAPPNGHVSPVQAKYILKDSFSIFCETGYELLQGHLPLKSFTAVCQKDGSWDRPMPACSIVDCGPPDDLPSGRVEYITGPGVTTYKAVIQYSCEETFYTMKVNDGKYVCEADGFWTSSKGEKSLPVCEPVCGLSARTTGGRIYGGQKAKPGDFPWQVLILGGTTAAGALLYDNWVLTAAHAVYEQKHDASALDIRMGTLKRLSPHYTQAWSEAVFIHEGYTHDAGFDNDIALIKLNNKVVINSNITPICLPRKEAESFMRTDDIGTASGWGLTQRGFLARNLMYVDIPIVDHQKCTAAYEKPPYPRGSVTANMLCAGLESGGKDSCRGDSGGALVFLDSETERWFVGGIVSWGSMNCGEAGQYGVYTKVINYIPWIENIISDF
T4 sequence (P00746 26-253): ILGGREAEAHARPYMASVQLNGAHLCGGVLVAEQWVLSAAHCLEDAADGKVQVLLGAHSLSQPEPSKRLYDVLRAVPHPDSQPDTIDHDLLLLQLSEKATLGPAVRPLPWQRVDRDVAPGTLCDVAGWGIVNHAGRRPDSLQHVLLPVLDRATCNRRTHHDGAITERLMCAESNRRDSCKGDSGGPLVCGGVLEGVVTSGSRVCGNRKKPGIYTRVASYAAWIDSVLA

Structure (SMILES) | pIC50 [1, 11] | further results
C[C@@H]1CN(c2ccc3c(N)nncc3c2)CCN1c1cccc(F)c1 [(R)-6, 6-[(3R)-4-(3-Fluorophenyl)-3-methylpiperazin-1-yl]phthalazin-1-amine] | 6.09 | –
C[C@H]1CN(c2ccc3c(N)nncc3c2)CCN1c1cccc(F)c1 [(S)-6, 6-[(3S)-4-(3-Fluorophenyl)-3-methylpiperazin-1-yl]phthalazin-1-amine] | 6.77 | –
Cc1cc([C@@H]2CN(c3cc(F)c4c(N)nncc4c3)CCN2c2cccc(F)c2)no1 [(S)-8, 8-Fluoro-6-[(3S)-4-(3-fluorophenyl)-3-(5-methyl-1,2-oxazol-3-yl)piperazin-1-yl]phthalazin-1-amine] | < 3.52 | –
CSc1sc(C(=N)N)cc1S(=O)(=O)c1cccc(-c2c(C)cccc2NC(=O)CCCS(C)(=O)=O)c1 [Compound 1] | – | in vivo pharmacokinetics (PK) properties [2]: poor
Cc1ccc(C(=O)N2CCN(c3ccc4c(N)nccc4c3)CC2)cc1 [Compound 4b, [4-(1-Aminoisoquinolin-6-yl)piperazin-1-yl](4-methylphenyl)methanone] | 4.02 | –
Cc1ccc(C(=O)N2CCN(c3ccc4c(N)nncc4c3)CC2)cc1 [Compound 4c, [4-(1-Aminophthalazin-6-yl)piperazin-1-yl](4-methylphenyl)methanone] | 5.60 | –
Cc1ccc(C(=O)N2CCN(c3ccc4cnncc4c3)CC2)cc1 [Compound 4d, (4-Methylphenyl)[4-(phthalazin-6-yl)piperazin-1-yl]methanone] | < 3.52 | –
Cc1ccccc1C(=O)N1CCN(c2ccc3c(N)nncc3c2)CC1 [Compound 4e, [4-(1-Aminophthalazin-6-yl)piperazin-1-yl](2-methylphenyl)methanone] | – | pIC50 ([1]; supplementary csv): 5.35; pIC50 [3]: < 4.52; pIC50 [4]: < 4.52; pIC50 [5]: < 4.52; pIC50 [6]: < 4.52; pIC50 [7]: < 4.52
Nc1nncc2cc(N3CCN(C(=O)c4ccccc4)CC3)ccc12 [Compound 4f, [4-(1-Aminophthalazin-6-yl)piperazin-1-yl](phenyl)methanone] | 5.29 | –
Nc1nncc2cc(N3CCN(c4ccccc4)CC3)ccc12 [Compound 5a, 6-(4-Phenylpiperazin-1-yl)phthalazin-1-amine Trifluoroacetic Acid Salt] | 6.24 | –
Nc1nncc2cc(N3CCC(c4ccccc4)CC3)ccc12 [Compound 5b, 6-(4-Phenylpiperidin-1-yl)phthalazin-1-amine Trifluoroacetic Acid Salt] | 5.38 | –
Nc1nncc2cc(C3CCN(c4ccccc4)CC3)ccc12 [Compound 5c, 6-(1-Phenylpiperidin-4-yl)phthalazin-1-amine] | < 4.52 | –
Cc1ccccc1N1CCN(c2ccc3c(N)nncc3c2)CC1 [Compound 5d, 6-[4-(2-Methylphenyl)piperazin-1-yl]phthalazin-1-amine Trifluoroacetic Acid Salt] | 5.92 | –
Cc1cccc(N2CCN(c3ccc4c(N)nncc4c3)CC2)c1 [Compound 5e, 6-[4-(3-Methylphenyl)piperazin-1-yl]phthalazin-1-amine] | 6.25 | –
Cc1ccc(N2CCN(c3ccc4c(N)nncc4c3)CC2)cc1 [Compound 5f, 6-[4-(4-Methylphenyl)piperazin-1-yl]phthalazin-1-amine] | 5.17 | –
Nc1nncc2cc(N3CCN(c4cccc(F)c4)CC3)ccc12 [Compound 5g, 6-[4-(3-Fluorophenyl)piperazin-1-yl]phthalazin-1-amine] | 6.43 | –
Nc1nncc2cc(N3CCN(c4cccc(Cl)c4)CC3)ccc12 [Compound 5h, 6-[4-(3-Chlorophenyl)piperazin-1-yl]phthalazin-1-amine Trifluoroacetic Acid Salt] | 6.41 | –
COc1cccc(N2CCN(c3ccc4c(N)nncc4c3)CC2)c1 [Compound 5i, 6-[4-(3-Methoxyphenyl)piperazin-1-yl]phthalazin-1-amine] | 5.85 | –
N#Cc1cccc(N2CCN(c3ccc4c(N)nncc4c3)CC2)c1 [Compound 5j, 3-[4-(1-Aminophthalazin-6-yl)piperazin-1-yl]benzonitrile] | 5.85 | –
Cc1cc([C@H]2CN(c3ccc4c(N)nncc4c3)CCN2c2cccc(F)c2)no1.O=C(O)C(F)(F)F [Compound (R)-7, 6-[(3R)-4-(3-Fluorophenyl)-3-(5-methyl-1,2-oxazol-3-yl)piperazin-1-yl]phthalazin-1-amine Trifluoroacetic Acid Salt] | 8.15 | Papp at 3 h, 10 μmol/L ([8]; PAMPA, pH 7.4): 1.9 ×10⁻⁶ cm/s; PAMPA at pH 7.4 (nm/sec) ([8]; supplementary csv): 19 nm/sec; MDR1 (A to B) [9]: 3 nm/s; Papp A→B at 2 h, 1 μmol/L [10]: 0.3 ×10⁻⁶ cm/s
